Measurements reported in ChEMBL document CHEMBL1154164, “Design, synthesis, biological evaluation, and NMR studies of a new series of arylsulfones as selective and potent matrix metalloproteinase-12 inhibitors” (J Med Chem, 2009).

Legend:
[1] = biological target: 72 kDa type IV collagenase (Homo sapiens, UniProt P08253); experiment: Inhibition of para-aminophenylmercuric acetate-activated human recombinant pro-MMP2 catalytic domain after 4 hrs by fluorimetry
[2] = biological target: Matrix metalloproteinase-16 (Homo sapiens, UniProt P51512); experiment: Inhibition of human recombinant pro-MMP16 catalytic domain after 4 hrs by fluorimetry
Matrix metalloproteinase-16, sequence (P51512 whole entry, the tested form may be a part): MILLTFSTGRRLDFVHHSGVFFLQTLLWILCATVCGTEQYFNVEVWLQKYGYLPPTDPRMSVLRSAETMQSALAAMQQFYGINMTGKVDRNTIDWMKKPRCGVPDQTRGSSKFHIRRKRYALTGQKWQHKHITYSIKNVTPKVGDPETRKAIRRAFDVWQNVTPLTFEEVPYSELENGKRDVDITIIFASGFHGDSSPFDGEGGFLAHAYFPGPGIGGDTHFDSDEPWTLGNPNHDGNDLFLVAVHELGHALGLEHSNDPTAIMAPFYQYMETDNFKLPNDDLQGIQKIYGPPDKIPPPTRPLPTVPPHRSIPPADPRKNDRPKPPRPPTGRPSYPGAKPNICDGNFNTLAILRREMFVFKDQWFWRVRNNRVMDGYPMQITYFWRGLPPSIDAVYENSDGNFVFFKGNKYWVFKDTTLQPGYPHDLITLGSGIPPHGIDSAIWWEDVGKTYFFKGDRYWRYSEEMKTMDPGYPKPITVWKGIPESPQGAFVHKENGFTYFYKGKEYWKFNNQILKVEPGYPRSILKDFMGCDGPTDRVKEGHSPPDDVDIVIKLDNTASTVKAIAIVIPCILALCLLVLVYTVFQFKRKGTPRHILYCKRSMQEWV

[3] = biological target: T1, Macrophage metalloelastase (Homo sapiens, UniProt P39900); experiment: Inhibition of autoactivated human pro-MMP12 after 4 hrs by fluorimetry
T1 sequence (P39900 whole entry): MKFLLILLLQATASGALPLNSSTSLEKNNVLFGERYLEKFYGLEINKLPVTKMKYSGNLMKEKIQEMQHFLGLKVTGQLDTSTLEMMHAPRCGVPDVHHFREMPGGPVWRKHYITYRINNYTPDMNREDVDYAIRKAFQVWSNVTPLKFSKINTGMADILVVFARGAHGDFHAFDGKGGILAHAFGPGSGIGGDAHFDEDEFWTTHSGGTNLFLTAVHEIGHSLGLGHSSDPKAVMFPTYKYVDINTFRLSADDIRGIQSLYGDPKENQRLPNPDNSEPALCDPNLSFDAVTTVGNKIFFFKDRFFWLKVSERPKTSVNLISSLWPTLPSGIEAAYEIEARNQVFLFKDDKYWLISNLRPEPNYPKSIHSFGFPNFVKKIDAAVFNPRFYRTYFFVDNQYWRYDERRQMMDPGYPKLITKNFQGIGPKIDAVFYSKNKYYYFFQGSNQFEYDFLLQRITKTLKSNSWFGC

Collagenase 3 = Collagenase 3 (Homo sapiens, UniProt P45452); experiment: Inhibition of para-aminophenylmercuric acetate-activated human pro-MMP13 after 4 hrs by fluorimetry
Interstitial collagenase = biological target: T2, Interstitial collagenase (Homo sapiens, UniProt P03956); experiment: Inhibition of para-aminophenylmercuric acetate-activated human pro-MMP1 after 4 hrs by fluorimetry
T2 sequence (P03956 whole entry): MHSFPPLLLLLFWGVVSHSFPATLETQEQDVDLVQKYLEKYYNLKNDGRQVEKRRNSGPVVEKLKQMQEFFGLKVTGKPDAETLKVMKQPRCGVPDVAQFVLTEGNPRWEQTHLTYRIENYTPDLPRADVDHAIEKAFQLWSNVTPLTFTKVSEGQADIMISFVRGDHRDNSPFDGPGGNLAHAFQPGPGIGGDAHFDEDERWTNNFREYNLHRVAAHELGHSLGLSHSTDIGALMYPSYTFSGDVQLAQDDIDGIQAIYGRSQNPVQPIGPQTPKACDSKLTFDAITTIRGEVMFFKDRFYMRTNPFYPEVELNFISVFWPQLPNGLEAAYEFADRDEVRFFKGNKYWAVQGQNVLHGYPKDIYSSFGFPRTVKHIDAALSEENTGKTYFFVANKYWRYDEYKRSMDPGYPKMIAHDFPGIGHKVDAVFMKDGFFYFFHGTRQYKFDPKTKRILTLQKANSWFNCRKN

Stromelysin-1 = Stromelysin-1 (Homo sapiens, UniProt P08254); experiment: Inhibition of trypsin activated human pro-MMP3 after 4 hrs by fluorimetry
Stromelysin-1, sequence (P08254 whole entry, the tested form may be a part): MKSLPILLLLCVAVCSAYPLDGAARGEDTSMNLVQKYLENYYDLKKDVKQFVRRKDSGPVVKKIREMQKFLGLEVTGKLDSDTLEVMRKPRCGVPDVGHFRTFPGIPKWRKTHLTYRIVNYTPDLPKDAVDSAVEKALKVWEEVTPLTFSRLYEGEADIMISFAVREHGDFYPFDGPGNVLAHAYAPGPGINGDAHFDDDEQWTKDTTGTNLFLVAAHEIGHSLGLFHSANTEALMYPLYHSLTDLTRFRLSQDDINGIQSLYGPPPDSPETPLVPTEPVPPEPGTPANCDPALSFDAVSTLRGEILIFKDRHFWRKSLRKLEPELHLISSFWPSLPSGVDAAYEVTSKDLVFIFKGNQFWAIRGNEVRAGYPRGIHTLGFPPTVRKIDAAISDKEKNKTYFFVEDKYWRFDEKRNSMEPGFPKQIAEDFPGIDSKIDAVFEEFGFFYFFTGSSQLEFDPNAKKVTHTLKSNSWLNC

[4] = biological target: Matrix metalloproteinase-14 (Homo sapiens, UniProt P50281); experiment: Inhibition of human recombinant pro-MMP14 catalytic domain after 4 hrs by fluorimetry
Neutrophil collagenase = Neutrophil collagenase (Homo sapiens, UniProt P22894); experiment: Inhibition of para-aminophenylmercuric acetate-activated human pro-MMP8 after 4 hrs by fluorimetry
Neutrophil collagenase, sequence (P22894 whole entry, the tested form may be a part): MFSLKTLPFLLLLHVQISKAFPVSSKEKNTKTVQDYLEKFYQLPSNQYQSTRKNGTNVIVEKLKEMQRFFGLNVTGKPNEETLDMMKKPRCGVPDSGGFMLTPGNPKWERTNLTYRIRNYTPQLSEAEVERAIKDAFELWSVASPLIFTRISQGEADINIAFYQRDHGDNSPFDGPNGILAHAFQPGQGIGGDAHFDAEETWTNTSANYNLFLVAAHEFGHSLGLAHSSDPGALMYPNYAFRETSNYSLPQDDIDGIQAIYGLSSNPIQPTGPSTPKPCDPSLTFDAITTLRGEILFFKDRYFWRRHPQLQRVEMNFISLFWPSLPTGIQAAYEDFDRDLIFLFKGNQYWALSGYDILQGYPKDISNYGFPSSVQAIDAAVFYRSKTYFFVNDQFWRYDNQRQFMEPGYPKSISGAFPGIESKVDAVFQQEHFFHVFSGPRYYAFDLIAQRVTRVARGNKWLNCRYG

[5] = biological target: Matrix metalloproteinase-9 (Homo sapiens, UniProt P14780); experiment: Inhibition of para-aminophenylmercuric acetate-activated human recombinant pro-MMP9 catalytic domain after 4 hrs by fluorimetry
Matrix metalloproteinase-9, sequence (P14780 whole entry, the tested form may be a part): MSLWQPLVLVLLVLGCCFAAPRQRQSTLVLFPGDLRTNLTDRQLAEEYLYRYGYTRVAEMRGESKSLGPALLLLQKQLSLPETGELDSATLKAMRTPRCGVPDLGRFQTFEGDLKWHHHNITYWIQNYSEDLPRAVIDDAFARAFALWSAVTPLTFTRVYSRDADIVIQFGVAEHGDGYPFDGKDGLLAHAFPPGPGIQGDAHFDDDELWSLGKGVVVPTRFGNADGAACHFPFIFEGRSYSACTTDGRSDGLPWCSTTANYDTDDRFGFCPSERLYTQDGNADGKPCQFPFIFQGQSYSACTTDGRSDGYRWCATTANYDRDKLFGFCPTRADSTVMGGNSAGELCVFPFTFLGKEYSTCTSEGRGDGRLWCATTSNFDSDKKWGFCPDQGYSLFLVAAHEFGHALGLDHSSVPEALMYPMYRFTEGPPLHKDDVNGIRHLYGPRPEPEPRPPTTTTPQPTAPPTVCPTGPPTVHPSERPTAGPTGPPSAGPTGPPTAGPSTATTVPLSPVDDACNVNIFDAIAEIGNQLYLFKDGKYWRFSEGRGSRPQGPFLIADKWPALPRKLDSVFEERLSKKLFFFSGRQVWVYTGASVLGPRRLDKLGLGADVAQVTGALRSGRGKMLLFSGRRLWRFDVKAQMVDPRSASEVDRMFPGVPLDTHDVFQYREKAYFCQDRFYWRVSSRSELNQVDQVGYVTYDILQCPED

[6] = biological target: T1, Macrophage metalloelastase; experiment: Inhibition of autoactivated human pro-MMP12 after 1 hr preincubation by fluorimetry
[7] = biological target: T1, Macrophage metalloelastase; experiment: Inhibition of autoactivated human pro-MMP12 after 30 mins preincubation by fluorimetry

72 kDa type IV collagenase, sequence (P08253 whole entry, the tested form may be a part): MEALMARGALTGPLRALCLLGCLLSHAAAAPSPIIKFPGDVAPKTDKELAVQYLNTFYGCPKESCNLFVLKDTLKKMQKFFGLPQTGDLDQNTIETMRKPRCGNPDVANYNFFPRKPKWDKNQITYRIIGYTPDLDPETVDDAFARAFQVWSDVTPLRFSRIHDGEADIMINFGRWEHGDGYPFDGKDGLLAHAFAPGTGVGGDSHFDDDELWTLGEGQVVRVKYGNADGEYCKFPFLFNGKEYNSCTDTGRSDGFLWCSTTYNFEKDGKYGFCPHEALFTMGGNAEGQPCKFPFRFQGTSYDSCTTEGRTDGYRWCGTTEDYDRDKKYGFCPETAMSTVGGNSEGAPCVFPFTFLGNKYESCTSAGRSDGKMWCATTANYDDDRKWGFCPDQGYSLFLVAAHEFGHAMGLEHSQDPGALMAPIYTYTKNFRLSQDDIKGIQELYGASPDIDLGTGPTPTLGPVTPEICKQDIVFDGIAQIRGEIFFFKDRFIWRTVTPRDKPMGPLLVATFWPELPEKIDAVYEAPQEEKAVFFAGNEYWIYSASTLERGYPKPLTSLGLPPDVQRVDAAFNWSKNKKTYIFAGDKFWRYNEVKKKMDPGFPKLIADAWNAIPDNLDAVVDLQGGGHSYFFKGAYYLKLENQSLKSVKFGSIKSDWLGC

| SMILES | IC50 [1] | IC50 [2] | IC50 [3] | IC50 (Collagenase 3) | IC50 (Interstitial collagenase) | IC50 (Stromelysin-1) | IC50 [4] | IC50 (Neutrophil collagenase) | IC50 [5] | IC50 [6] | IC50 [7] |
| --- | --- | --- | --- | --- | --- | --- | --- | --- | --- | --- | --- |
| CC(C)ON([C@@H](C(=O)NO)C(C)C)S(=O)(=O)c1ccc(-c2ccccc2)cc1 | 0.8 nM | 51 nM | 0.2 nM | 4.1 nM | 490 nM | – | – | – | – | – | – |
| COc1ccc(-c2ccc(S(=O)(=O)c3ccccc3C(C)C(=O)NO)cc2)cc1 (racemic) | 7 nM | 150 nM | 2.7 nM | 12 nM | > 10000 nM | 1400 nM | 360 nM | 54 nM | 69 nM | – | – |
| COc1ccc(S(=O)(=O)c2ccccc2CC(=O)NO)cc1 | 230 nM | 130 nM | 32 nM | 84 nM | 4100 nM | 730 nM | 200 nM | 280 nM | 98 nM | – | – |
| CC(C(=O)NO)c1ccccc1S(=O)(=O)c1ccc(-c2ccccc2)cc1 (racemic) | 73 nM | 470 nM | 6 nM | 74 nM | 12000 nM | 5600 nM | 860 nM | 390 nM | 340 nM | – | – |
| COc1ccc(S(=O)(=O)c2ccccc2CC(=O)O)cc1 | 58000 nM | 93000 nM | 89000 nM | 55000 nM | > 100000 nM | > 100000 nM | 77000 nM | 74000 nM | > 100000 nM | – | – |
| COc1ccc(-c2ccc(S(=O)(=O)c3ccccc3CC(=O)O)cc2)cc1 | 47 nM | 730 nM | 140 nM | 78 nM | 4400 nM | 7500 nM | 740 nM | 99 nM | 730 nM | 150 nM | 170 nM |
| O=C(NO)c1ccccc1S(=O)(=O)c1ccc(Oc2ccccc2)cc1 | 1200 nM | 1300 nM | 1200 nM | 2700 nM | > 10000 nM | 27000 nM | 1300 nM | 620 nM | 690 nM | – | – |
| COc1ccc(Oc2ccc(S(=O)(=O)c3ccccc3CC(=O)O)cc2)cc1 | 710 nM | 6500 nM | 380 nM | 940 nM | > 10000 nM | > 10000 nM | 8100 nM | 1200 nM | 420 nM | – | – |
| COc1ccc(-c2ccc(S(=O)(=O)c3ccccc3C(=O)NO)cc2)cc1 | 100 nM | 1200 nM | 70 nM | 260 nM | 28000 nM | 4000 nM | 1300 nM | 87 nM | 930 nM | – | – |
| COc1ccc(-c2ccc(S(=O)(=O)c3ccccc3CC(=O)NO)cc2)cc1 | 9.7 nM | 130 nM | 4.8 nM | 25 nM | 8300 nM | 1600 nM | 710 nM | 120 nM | 94 nM | – | – |
| COc1ccc(Oc2ccc(S(=O)(=O)c3ccccc3CC(=O)NO)cc2)cc1 | 3.5 nM | 32 nM | 0.2 nM | 4.1 nM | 3500 nM | 21 nM | 33 nM | 5.1 nM | 0.8 nM | 0.85 nM | 0.89 nM |
| O=C(O)Cc1ccccc1S(=O)(=O)c1ccc(-c2ccccc2)cc1 | 510 nM | 4300 nM | 1500 nM | 260 nM | 23000 nM | 74000 nM | 5400 nM | 290 nM | 7300 nM | – | – |
| O=C(Cc1ccccc1S(=O)(=O)c1ccc(-c2ccccc2)cc1)NO | 38 nM | 220 nM | 6 nM | 62 nM | 29000 nM | 23000 nM | 940 nM | 370 nM | 310 nM | – | – |
| COc1ccc(S(=O)(=O)c2ccccc2C(=O)NO)cc1 | 35000 nM | 31000 nM | 14000 nM | 28000 nM | > 100000 nM | > 50000 nM | 25000 nM | 72000 nM | 24000 nM | – | – |
| CC(C)ON([C@@H](C(=O)O)C(C)C)S(=O)(=O)c1ccc(-c2ccccc2)cc1 | 1500 nM | 18000 nM | 410 nM | 7900 nM | > 100000 nM | 54000 nM | 10000 nM | 2000 nM | 24000 nM | – | – |
| C[S+]([O-])c1ccc(Oc2ccc(S(=O)(=O)c3ccccc3C(=O)NO)cc2)cc1 (stereo not given) | 9900 nM | 110000 nM | 5800 nM | 20000 nM | > 200000 nM | 60000 nM | 120000 nM | 9200 nM | 51000 nM | – | – |
| COc1ccc(-c2ccc(S(=O)(=O)c3ccccc3C(C)C(=O)O)cc2)cc1 (racemic) | 190 nM | 1100 nM | 310 nM | 190 nM | > 10000 nM | 8000 nM | 2100 nM | 290 nM | 3000 nM | – | – |
| CC(C(=O)O)c1ccccc1S(=O)(=O)c1ccc(-c2ccccc2)cc1 (racemic) | 2400 nM | 6300 nM | 1900 nM | 1800 nM | 51000 nM | > 100000 nM | 18000 nM | 1900 nM | 20000 nM | – | – |
| O=C(NO)c1ccccc1S(=O)(=O)c1ccc(-c2ccccc2)cc1 | 1300 nM | 5100 nM | 590 nM | 1400 nM | 73000 nM | 45000 nM | 8300 nM | 1000 nM | 7700 nM | – | – |
| COc1ccc(Oc2ccc(S(=O)(=O)c3ccccc3C(=O)NO)cc2)cc1 | 1300 nM | 6000 nM | 920 nM | 2700 nM | > 10000 nM | 22000 nM | 4000 nM | 1900 nM | 410 nM | – | – |
